“Also recorded” adds a separate entry of the source. Like-named read-outs stand apart in the source and are kept apart here.
Tests used:
scn1lab mutant zebrafish [1] = experiment: Locomotion assay of high-velocity seizure-like swim behavior; format: in vivo, zebrafish (Danio rerio)
Excerpt: Zebrafish maintenance. Zebrafish were raised under standard laboratory conditions in accordance with requirements outlined in the Guide for the Care and Use of Animals (ebrary Inc., 2011) and experiments were approved by the Institutional Animal Care and Use Committee (protocol #AN108659-03). Embryos were obtained by natural spawning of scn1lab (didy^s552) heterozygous animals that had been outcrossed to TL strain. Homozygous scn1lab mutants (n=2500) have dispersed melanosomes and appear visibly darker by 3 dpf compared to WT larvae.
Seizure monitoring. At 5 dpf individual zebrafish larvae were placed into a single well of a clear flat-bottomed 96-well microplate containing embryo media. Larvae were selected randomly as sex determination is not possible at this stage of development. All drug screening experiments were conducted in an unbiased manner by investigators blinded to the test compounds and all files coded for post hoc analysis. Microplates were placed inside the DanioVision and acclimated for 20 min at room temperature. Locomotion plots were obtained for each well at a recording epoch of 10 min using EthoVision XT software (DanioVision, Noldus Information Technology). Seizure scoring was performed using the following three-stage scale established for pentylenetetrazole-induced seizures: Stage 0, no or very little swim activity; Stage I, increased, brief bouts of swim activity; Stage II, rapid “whirlpool-like” circling swim behavior; and Stage III, paroxysmal whole-body clonus-like convulsions, and a brief loss of posture. WT fish are typically scored at Stage 0 or I. Plots were analyzed for distance travelled (in millimeters) and mean velocity (in millimeters per second). After 90 mins of drug exposure larvae were examined for toxic side-effects. Compounds that decreased or stopped the larva heartbeat, or reduced or eliminated the escape response when touched, were considered toxic.
Statistics. Data are presented as the mean±standard error of the mean (SEM), unless otherwise stated. For behavior analysis, the threshold for a change in mean swim velocity ≥40% (>1.5×SD of 250 control treated scn1lab) is considered significant. For comparison between more than two groups one-way ANOVA analysis was used. […] Differences considered statistically significant are indicated with asterisks (*P<0.05; **P<0.01).

scn1lab mutant zebrafish [2] = experiment: Local field potential (LFP) electrophysiology of electrographic seizure events; format: in vivo, zebrafish (Danio rerio)
Experimental: For electrophysiology studies, zebrafish larvae were anesthetized with cold and immobilized in 1.2% agarose; local field potential (LFP) recordings were obtained from forebrain or optic tectum structures using a single-electrode approach, as previously described (Baraban, S. C. et al., Neuroscience, 131, 759-768, 2005). Agarose-embedded LFP recording sessions of 10 min were obtained at 1 kHz. Epileptiform events were identified post hoc and defined as multi-spike or poly-spike upward or downward membrane deflections greater than 3× baseline noise level and 150-250 ms in duration (interictal-like) or greater than 5× baseline noise, multi-spike and >500 ms in duration (ictal-like); both events were counted using threshold detection settings in Clampfit (Molecular Devices; Sunnyvale, Calif.). During electrophysiology experiments larvae were continuously monitored for blood flow and heart rate using an Axiocam digital camera at video frame rate.
Monitoring electrographic brain activity to confirm seizure suppression is an essential assay to eliminate false positives from behavioral testing (Griffin, A. et al., Frontiers in Pharmacology, 9, 2018). By placing a microelectrode into a visually identified brain region of an agar-immobilized zebrafish larval, stable local field potential (LFP) recordings can be monitored for several hours (Baraban, S. C. et al., Nat Commun, 4, 2410, 2013). At 5 dpf LFP recordings of scn1Lab zebrafish larvae show an average of 250 abnormal electrographic seizure events during a 10 min recording epoch.

human 5-HT2AR = biological target: T1, human 5-HT2AR (Homo sapiens, UniProt P28223); conditions: read-out: binding affinity (Ki) 5-HT2A / 5-HT2AR, cited from earlier work
T1 construct: expressed in transfected cells
T1 sequence (P28223 whole entry): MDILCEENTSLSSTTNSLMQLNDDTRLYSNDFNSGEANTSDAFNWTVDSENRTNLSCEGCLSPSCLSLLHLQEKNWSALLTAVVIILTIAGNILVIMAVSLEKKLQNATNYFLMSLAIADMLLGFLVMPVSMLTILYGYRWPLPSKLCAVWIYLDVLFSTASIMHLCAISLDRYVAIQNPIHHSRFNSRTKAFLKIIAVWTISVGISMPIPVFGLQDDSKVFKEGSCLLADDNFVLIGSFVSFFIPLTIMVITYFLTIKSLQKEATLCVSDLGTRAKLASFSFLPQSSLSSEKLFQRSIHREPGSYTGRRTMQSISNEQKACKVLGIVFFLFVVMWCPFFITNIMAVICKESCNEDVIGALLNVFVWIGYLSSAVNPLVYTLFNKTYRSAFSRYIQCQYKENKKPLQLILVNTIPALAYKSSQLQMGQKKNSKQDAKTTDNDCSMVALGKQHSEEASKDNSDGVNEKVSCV

5-HT1A = biological target: T2, 5-HT1A (Homo sapiens, UniProt P08908); conditions: read-out: binding affinity (Ki) 5-HT1A; cited from earlier work
T2 sequence (P08908 1-422): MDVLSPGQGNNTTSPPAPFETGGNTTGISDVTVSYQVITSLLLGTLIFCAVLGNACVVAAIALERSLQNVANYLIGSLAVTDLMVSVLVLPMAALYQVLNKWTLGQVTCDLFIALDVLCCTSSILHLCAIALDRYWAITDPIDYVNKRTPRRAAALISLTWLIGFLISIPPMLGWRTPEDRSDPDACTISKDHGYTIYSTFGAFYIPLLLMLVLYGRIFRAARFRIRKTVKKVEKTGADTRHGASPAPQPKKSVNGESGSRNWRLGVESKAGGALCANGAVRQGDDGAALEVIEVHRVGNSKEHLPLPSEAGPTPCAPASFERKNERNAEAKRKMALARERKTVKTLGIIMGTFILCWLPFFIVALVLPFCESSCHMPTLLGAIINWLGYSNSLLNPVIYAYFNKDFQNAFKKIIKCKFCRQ

5-HT7 = 5-HT7 (Homo sapiens, UniProt P34969); conditions: read-out: binding affinity (Ki) 5-HT7; cited from earlier work
5-HT7, sequence (P34969 whole entry, species assumed): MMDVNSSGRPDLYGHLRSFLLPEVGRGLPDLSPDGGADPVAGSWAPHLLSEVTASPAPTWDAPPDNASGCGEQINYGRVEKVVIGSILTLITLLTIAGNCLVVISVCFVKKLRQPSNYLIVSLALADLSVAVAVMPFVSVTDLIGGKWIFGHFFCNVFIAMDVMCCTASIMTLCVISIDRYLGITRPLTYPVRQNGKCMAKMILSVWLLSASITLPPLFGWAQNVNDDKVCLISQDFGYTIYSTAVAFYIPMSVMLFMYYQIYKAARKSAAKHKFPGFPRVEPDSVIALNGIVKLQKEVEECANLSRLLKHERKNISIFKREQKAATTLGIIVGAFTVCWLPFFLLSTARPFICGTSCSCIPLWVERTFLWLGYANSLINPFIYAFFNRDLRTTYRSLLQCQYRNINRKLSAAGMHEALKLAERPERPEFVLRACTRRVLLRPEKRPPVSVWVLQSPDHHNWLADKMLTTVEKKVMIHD

5-HT Transporter = 5-HT Transporter (Homo sapiens, UniProt P31645); conditions: read-out: binding affinity (Ki) 5-HT Transporter; cited from earlier work
5-HT Transporter, sequence (P31645 whole entry, species assumed): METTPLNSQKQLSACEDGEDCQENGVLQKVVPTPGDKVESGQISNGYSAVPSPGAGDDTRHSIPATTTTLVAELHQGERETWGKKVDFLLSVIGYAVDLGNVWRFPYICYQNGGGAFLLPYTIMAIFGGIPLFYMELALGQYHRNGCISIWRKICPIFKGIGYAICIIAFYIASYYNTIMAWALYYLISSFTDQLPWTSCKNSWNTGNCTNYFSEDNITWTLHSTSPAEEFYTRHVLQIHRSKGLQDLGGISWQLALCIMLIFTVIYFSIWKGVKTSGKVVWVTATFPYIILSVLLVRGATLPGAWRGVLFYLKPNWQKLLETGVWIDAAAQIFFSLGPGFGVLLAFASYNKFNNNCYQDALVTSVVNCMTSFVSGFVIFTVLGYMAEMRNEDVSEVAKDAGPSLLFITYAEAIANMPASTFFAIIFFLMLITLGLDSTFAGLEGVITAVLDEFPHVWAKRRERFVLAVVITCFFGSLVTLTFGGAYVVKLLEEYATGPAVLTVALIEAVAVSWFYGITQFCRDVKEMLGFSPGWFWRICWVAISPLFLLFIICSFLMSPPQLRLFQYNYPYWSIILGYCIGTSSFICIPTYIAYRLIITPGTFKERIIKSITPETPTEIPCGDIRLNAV

5-HT1B = 5-HT1B (Homo sapiens, UniProt P28222); conditions: read-out: binding affinity (Ki) 5-HT1B; cited from earlier work
5-HT1B, sequence (P28222 whole entry, species assumed): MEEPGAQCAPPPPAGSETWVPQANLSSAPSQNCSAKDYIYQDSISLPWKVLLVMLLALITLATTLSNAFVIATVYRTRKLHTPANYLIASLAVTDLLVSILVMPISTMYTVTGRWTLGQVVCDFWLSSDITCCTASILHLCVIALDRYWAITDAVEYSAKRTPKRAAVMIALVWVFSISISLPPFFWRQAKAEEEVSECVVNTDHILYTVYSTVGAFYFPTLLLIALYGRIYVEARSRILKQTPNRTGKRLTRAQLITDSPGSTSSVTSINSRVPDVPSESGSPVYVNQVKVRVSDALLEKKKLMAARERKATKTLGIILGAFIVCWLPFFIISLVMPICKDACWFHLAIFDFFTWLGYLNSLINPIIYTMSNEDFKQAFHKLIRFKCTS

5-HT1D = 5-HT1D (Homo sapiens, UniProt P28221); conditions: read-out: binding affinity (Ki) 5-HT1D; cited from earlier work
5-HT1D, sequence (P28221 whole entry, species assumed): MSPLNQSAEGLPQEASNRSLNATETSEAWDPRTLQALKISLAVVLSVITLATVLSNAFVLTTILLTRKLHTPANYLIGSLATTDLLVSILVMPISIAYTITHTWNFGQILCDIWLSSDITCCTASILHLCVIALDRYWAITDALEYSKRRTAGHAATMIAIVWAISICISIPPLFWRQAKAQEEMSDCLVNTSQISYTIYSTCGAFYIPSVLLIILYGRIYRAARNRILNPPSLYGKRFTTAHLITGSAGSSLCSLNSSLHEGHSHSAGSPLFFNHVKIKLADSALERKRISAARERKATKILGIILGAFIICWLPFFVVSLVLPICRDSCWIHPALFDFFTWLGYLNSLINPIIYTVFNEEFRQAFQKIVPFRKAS

5-HT6 = 5-HT6 (Homo sapiens, UniProt P50406); conditions: read-out: binding affinity (Ki) 5-HT6; cited from earlier work
5-HT6, sequence (P50406 whole entry, species assumed): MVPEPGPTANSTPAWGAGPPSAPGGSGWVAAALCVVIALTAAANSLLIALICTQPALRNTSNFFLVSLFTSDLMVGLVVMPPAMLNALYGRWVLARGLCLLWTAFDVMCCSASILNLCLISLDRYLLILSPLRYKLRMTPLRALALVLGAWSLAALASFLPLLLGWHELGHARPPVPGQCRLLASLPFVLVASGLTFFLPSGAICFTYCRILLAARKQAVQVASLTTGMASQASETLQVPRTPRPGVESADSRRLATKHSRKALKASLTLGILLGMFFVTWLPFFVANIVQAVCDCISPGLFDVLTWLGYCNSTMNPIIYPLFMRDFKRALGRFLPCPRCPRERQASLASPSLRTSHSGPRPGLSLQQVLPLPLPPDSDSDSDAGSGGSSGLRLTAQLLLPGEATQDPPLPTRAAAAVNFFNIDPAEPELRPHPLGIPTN

Adrenergic Alpha1B = biological target: T3, Adrenergic Alpha1B (Homo sapiens, UniProt P35368); conditions: read-out: binding affinity (Ki) Adrenergic Alpha1B; cited from earlier work
T3 sequence (P35368 1-520): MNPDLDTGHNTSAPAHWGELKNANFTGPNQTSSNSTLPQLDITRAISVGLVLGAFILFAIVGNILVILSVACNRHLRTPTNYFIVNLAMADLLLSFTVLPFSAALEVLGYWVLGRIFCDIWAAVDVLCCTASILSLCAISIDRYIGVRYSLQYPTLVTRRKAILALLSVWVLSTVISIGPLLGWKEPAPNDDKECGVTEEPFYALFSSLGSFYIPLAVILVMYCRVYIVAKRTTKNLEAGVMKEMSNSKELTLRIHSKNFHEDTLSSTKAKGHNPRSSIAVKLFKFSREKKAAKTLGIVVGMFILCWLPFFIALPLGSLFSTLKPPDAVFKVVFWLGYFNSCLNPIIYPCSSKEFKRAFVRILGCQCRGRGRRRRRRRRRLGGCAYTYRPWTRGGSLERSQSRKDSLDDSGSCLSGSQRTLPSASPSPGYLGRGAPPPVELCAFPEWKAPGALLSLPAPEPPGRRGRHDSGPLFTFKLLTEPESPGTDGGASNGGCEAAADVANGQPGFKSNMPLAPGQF

5-HT5 = 5-HT5 (Homo sapiens, UniProt P47898); conditions: read-out: binding affinity (Ki) 5-HT5; cited from earlier work
[3] = biological target: Norepinephrine Transporter (Homo sapiens, UniProt P23975); conditions: read-out: binding affinity (Ki) Norepinephrine Transporter; cited from earlier work
Norepinephrine Transporter, sequence (P23975 whole entry): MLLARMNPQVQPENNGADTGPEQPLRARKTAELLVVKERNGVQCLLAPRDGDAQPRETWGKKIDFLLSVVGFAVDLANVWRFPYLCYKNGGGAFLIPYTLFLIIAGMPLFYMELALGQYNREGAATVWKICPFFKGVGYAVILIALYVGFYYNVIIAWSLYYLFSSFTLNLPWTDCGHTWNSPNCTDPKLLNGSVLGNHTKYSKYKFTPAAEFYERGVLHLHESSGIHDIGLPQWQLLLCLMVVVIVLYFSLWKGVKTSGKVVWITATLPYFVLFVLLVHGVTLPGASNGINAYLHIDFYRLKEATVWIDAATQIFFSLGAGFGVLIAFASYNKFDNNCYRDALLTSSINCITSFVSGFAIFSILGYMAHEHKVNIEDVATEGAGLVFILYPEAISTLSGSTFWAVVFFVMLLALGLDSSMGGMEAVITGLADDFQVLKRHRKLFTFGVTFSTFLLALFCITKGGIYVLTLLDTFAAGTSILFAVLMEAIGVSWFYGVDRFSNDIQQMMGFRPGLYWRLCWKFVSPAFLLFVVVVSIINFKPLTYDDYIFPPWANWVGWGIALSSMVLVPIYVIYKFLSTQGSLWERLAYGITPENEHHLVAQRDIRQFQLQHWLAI

human 5-HT2BR = biological target: T4, human 5-HT2BR (Homo sapiens, UniProt P41595); conditions: known drugs and commercial compounds; read-out: binding affinity (Ki) 5-HT2B / 5-HT2BR; cited from earlier work
T4 construct: expressed in transfected cells
T4 sequence (P41595 whole entry): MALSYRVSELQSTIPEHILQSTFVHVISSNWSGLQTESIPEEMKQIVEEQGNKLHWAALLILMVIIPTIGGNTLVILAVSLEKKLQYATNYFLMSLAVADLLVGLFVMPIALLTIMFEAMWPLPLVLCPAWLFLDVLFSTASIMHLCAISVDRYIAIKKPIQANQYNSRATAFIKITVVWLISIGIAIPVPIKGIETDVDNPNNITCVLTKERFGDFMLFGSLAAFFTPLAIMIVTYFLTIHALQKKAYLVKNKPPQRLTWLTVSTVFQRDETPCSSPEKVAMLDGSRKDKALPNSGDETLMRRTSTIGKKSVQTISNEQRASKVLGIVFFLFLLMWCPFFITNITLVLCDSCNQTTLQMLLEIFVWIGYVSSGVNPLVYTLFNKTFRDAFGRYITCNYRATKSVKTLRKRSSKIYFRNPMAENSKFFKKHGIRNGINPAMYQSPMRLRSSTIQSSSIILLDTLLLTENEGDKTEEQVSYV

human 5-HT2CR = biological target: T5, human 5-HT2CR (Homo sapiens, UniProt P28335); conditions: known drugs and commercial compounds; read-out: binding affinity (Ki) 5-HT2C / 5-HT2CR; cited from earlier work
T5 construct: expressed in transfected cells
T5 sequence (P28335 33-458): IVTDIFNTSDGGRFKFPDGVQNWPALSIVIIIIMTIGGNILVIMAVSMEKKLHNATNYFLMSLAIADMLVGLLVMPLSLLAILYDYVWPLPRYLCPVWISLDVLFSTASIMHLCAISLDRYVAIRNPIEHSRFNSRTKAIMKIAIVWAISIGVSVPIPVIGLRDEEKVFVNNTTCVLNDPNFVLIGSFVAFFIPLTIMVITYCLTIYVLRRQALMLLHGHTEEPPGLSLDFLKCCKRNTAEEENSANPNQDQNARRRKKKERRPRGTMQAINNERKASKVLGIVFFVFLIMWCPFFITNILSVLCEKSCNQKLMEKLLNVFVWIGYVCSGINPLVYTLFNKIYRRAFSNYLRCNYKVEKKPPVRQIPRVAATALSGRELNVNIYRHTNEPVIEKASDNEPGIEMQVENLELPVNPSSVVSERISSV

Histamine H3 = Histamine H3 (Homo sapiens, UniProt Q9Y5N1); conditions: read-out: binding affinity (Ki) Histamine H3; cited from earlier work
Histamine H3, sequence (Q9Y5N1 whole entry): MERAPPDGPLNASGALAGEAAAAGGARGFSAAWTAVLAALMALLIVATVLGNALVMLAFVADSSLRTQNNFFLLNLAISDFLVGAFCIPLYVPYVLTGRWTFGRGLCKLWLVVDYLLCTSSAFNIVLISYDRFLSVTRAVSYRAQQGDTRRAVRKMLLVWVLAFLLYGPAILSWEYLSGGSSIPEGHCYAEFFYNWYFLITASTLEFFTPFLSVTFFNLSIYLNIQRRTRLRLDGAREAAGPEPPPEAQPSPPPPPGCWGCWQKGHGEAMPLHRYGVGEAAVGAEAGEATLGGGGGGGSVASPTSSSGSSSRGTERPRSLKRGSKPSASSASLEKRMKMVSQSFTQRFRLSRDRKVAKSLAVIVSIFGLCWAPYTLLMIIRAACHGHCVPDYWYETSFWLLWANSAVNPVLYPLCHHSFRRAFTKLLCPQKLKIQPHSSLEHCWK

human H1 receptor = human H1 receptor (Homo sapiens, UniProt P35367); conditions: read-out: binding affinity (Ki) Histamine H1; cited from earlier work
human H1 receptor, sequence (P35367 whole entry): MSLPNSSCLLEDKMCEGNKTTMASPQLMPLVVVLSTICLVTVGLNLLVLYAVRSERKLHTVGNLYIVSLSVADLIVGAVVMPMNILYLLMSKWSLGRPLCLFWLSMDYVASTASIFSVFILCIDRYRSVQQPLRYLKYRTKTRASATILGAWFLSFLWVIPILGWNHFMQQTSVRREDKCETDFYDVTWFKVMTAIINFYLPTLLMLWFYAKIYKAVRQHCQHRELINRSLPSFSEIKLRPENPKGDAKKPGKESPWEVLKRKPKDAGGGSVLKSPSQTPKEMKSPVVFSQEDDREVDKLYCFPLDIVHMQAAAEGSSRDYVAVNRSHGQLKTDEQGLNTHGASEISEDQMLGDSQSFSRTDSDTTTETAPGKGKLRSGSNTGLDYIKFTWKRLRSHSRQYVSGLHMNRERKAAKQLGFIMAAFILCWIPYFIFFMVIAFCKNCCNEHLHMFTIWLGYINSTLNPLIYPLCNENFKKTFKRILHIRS

In the case of `CC(N)Cc1ccc2ccoc2c1` (centres unmarked) [Compound 6-APB, 6-APB], the “effect on seizure-like swim behavior (change in mean velocity)” value (scn1lab mutant zebrafish [1]; commercial 5-HT2BR/dopamine agonists, three concentrations, 30 and 90 min exposure, threshold ≥40%) is given as “suppressed convulsive swim behaviors in a concentration-dependent manner”, the “frequency of electrographic seizure (epileptiform) events” value (scn1lab mutant zebrafish [2]; 250 μM, 10 min LFP recording, 5 dpf larvae) is given as “significant changes in the frequency of events; also recorded: significantly suppressed the frequency of electrographic seizure events” and the Ki (human 5-HT2AR; known drugs and commercial compounds) is given as 1930 nM. The Ki (5-HT1A) was 1280 nM, the Ki (5-HT7) was 155 nM and the Ki (5-HT Transporter) was 2700 nM.
For `CCNC(C)Cc1cccc(C(F)(F)F)c1` (centres unmarked) [FEN], the Ki (5-HT1B) is listed as 1840 nM, the Ki (5-HT1D) is listed as 1260 nM and the Ki (5-HT6) is listed as 9080 nM. For the same molecule, the Ki (5-HT7) was 7310 nM and the Ki (Adrenergic Alpha1B) was 142 nM.
In the case of `C[C@H]1CNCCc2ccc(Cl)cc21` [LOR], the Ki (5-HT1A) is given as 700 nM, the Ki (5-HT5) is given as 3710 nM and the Ki (5-HT6) is given as 1980 nM. The Ki (5-HT7) was 636 nM and the Ki [3] was 1400 nM.
For `Clc1ccc(Cn2c(CN3CCCC3)nc3ccccc32)cc1` [clemizole], the “inhibition of spontaneous convulsive behaviors” value (scn1lab mutant zebrafish [1]; phenotype-based screen) is given as “effective inhibitor”, the “inhibition of electrographic seizures” value (scn1lab mutant zebrafish [2]; phenotype-based screen) is given as “effective inhibitor” and the Ki (human 5-HT2AR) is given as 239 nM. The Ki (human 5-HT2BR) was 25 nM, the Ki (human 5-HT2CR) was 197 nM and the Ki (Histamine H3) was 402 nM. For the same molecule, the Ki (human H1 receptor) was 1.3 nM.
